Experimental data reported in a melting point compilation (Tetko et al.; mined from patent text by program, amines drawn as free bases though some values may be those of a salt).

Question: With `COc1ccc2c(C)c(C)oc2c1C=O` as the compound, how does the melting point read?
Answer: 88 °C

Question: For `CCCCCCCCCCCCCCCCC12CCC3=C(CCc4cc(OC)ccc43)C1=CCC2=O` (centres undefined), which melting point is on record?
Answer: 55 to 56 °C

Question: With `O=C(O)Cc1cc2c(s1)-c1ccccc1CC2` as the compound, how does the melting point read?
Answer: 103 to 105 °C

Question: With `O=S(=O)(ON=C1c2ccccc2-c2ccccc21)c1ccc(O)cc1` as the compound, how does the melting point read?
Answer: 216 to 217 °C

Question: With `Cc1cccc(-c2cc3cnc(N)nc3nc2N)c1C` as the compound, how does the melting point read?
Answer: 330 to 333 °C

Question: With `CNS(=O)(=O)c1ccc(N2CC(CO)OC2=O)cc1` (centres undefined) as the compound, how does the melting point read?
Answer: 164 to 166 °C

Question: With `C=CCN(CC=C)c1nc(NC(=O)C=C)n2oc(=O)nc2n1` as the compound, how does the melting point read?
Answer: 157 to 161 °C

Question: For `FC(F)(F)c1ccc(-c2nnc(-c3cccc(C4OCCO4)c3)o2)cc1`, which melting point is on record?
Answer: 107 to 108 °C

Question: For `C=C1C=CC2CC1C(Cc1ccc(OC)cc1)NC2=O` (centres undefined), which melting point is on record?
Answer: 132 to 133 °C

Question: With `COc1ccc(C2CCc3cc(OC)ccc3C2CCCn2ccnc2)cc1` (centres undefined) as the compound, how does the melting point read?
Answer: 67 °C

Question: Which melting point does the source give for `CS(=O)(=O)c1ccc(C(=O)c2cc(-c3ccccc3)c(N3CCOCC3)s2)cc1` here?
Answer: 175 °C

Question: Which melting point does the source give for `NC(=O)NN=Cc1ccc(OC2C3CC4CC(C3)CC2C4)cc1` (centres undefined) here?
Answer: 226 to 228 °C

Question: Which melting point does the source give for `CN(C)C(=O)c1cc(-c2ccc(-c3ccco3)cc2)n(-c2ccc(S(C)(=O)=O)c(F)c2)n1` here?
Answer: 167 to 168 °C

Question: With `CCOC(=O)c1c[nH]c2ccc(Cc3ccccc3)cc2c1=O` as the compound, how does the melting point read?
Answer: 265 to 270 °C

Question: For `N#CC=C1CCN(c2ccc(N3C[C@@H](Cn4cc(C#N)nn4)OC3=O)cc2F)CC1`, which melting point is on record?
Answer: 78 to 80 °C

Question: Which melting point does the source give for `Nc1cccc(NNC=O)c1` here?
Answer: 108 to 113 °C

Question: With `CN(C)CCOCC(O)c1ccc2cc(OCc3ccccc3)ccc2c1` (centres undefined) as the compound, how does the melting point read?
Answer: 100 °C

Question: For `O=C(NCC(=O)N1CCN(C(=O)c2cc(C(F)(F)F)cc(C(F)(F)F)c2)[C@H](Cc2c[nH]c3ccccc23)C1)c1ccccc1`, which melting point is on record?
Answer: 123 to 135 °C

Question: With `CSc1nnc(-c2ccc(Cl)nc2)s1` as the compound, how does the melting point read?
Answer: 136 °C

Question: With `COC(=O)CCn1cc(C2=C(c3cn(C)c4ccccc34)C(=O)NC2=O)c2ccccc21` as the compound, how does the melting point read?
Answer: 209 to 211 °C

Question: With `CCCCOCC(CO)OCn1cnc2c(O)nc(N)nc21` (centres undefined) as the compound, how does the melting point read?
Answer: 208 to 211 °C

Question: With `CC(=O)Oc1ccc(C2(c3ccc(OC(C)=O)cc3)C(c3ccccc3)C2(Cl)Cl)cc1` (centres undefined) as the compound, how does the melting point read?
Answer: 74 to 75 °C

Question: Which melting point does the source give for `N=C(N)c1ccc(-c2ccc(N3CCN(CCC(=O)O)S3(=O)=O)cc2)cc1` here?
Answer: > 260 °C

Question: For `Cc1cccc2c1NC(=O)C(CCCN1CCN(c3ccc(F)cc3)CC1)S2` (centres undefined), which melting point is on record?
Answer: 116 to 117 °C

Question: With `CCCNC(=O)C1(O)CC(O)C2OC(C)(C)OC2C1` (centres undefined) as the compound, how does the melting point read?
Answer: 85 to 86 °C

Question: Which melting point does the source give for `Cc1cccc(OS(=O)(=O)c2ccc(N3CCN(C)C3=O)cc2)c1` here?
Answer: 123 to 125 °C

Question: With `COc1cccc2c1nc(C(F)F)n2-c1nc(Nc2ccc(Cl)nc2)nc(N2CCOCC2)n1` as the compound, how does the melting point read?
Answer: 260 to 262 °C

Question: Which melting point does the source give for `FC(F)(F)/C(=C(\c1ccccc1)c1ccc(OCCN2CCOCC2)cc1)c1ccccc1` here?
Answer: 84 to 89 °C

Question: For `CCc1nn2ccc3c(c2c1CCNC(C)=O)CCO3`, which melting point is on record?
Answer: 161 to 162 °C

Question: For `N#CCCCC(N)=NO`, which melting point is on record?
Answer: 99.5 to 101 °C

Question: For `C=CCCn1cc([N+](=O)[O-])nc1Br`, which melting point is on record?
Answer: 28 to 30 °C

Question: Which melting point does the source give for `CCOC(=O)C1=C(O)C(=O)NCC1` here?
Answer: 142 to 148 °C

Question: For `COc1ccc(C2=NN(CCCCCN3C(=O)c4ccccc4C3=O)C(=O)[C@H]3CC=CC[C@@H]23)cc1OC` (relative stereo), which melting point is on record?
Answer: 126 to 129 °C

Question: With `CC1(C)Oc2cc(Br)sc2C(N2CCCCC2=O)C1O` (centres undefined) as the compound, how does the melting point read?
Answer: 200 to 202 °C

Question: Which melting point does the source give for `CCOC(=O)c1cc(Cl)cnc1NC(=O)Cc1cccc(Oc2ccccc2)c1` here?
Answer: 103 to 104 °C

Question: For `Cc1oc(-c2ccccc2)nc1COc1ccc(COC(=O)Cc2cccc(OCc3ccc(OCc4nc(-c5ccccc5)oc4C)cc3)c2)cc1`, which melting point is on record?
Answer: 90 to 91 °C

Question: With `COc1cc(OC)c2c(=O)[nH]c(-c3cccc(N4CCN(CCO)CC4)n3)nc2c1` as the compound, how does the melting point read?
Answer: 175 to 177 °C

Question: For `CC1(C)SC(=NO)NC1=O`, which melting point is on record?
Answer: 198 to 200 °C

Question: With `COC(=O)c1c(-c2ccccc2F)c2cc(OCc3ccccc3)ccc2c(=O)n1CC(C)C` as the compound, how does the melting point read?
Answer: 106 to 107 °C
